This experiment can be described thus: The opioid antagonist potency against PL-107 mu-opioid receptor from guinea pig ileum(GPI).Ke (nM) = [antagonist]/(IC50 ratio-1).

Each structure is given as a SMILES string. pKi: −log10 of the molar value.

Turning to `Oc1ccc2c3c1O[C@H]1c4ncc(-c5ccccc5)cc4C[C@@]4(O)[C@@H](C2)N(CC2CC2)CC[C@]314`, the pKi – broadly, −log10 of the Ki, conventionally taken in molar units – was 7.38.

For the origin of these results see BindingDB's records for doi:10.1021/jm990039i (Southern Research Institute, 1999).
